Organism: Rattus norvegicus
Experiment: DrugMatrix - Regimen: Daily Repeat
Format: toxicity, organism-based, Sprague-Dawley
Parameters: regimen Daily Repeat, gender Male, age 6-8 weeks
Conditions: in vivo, po, route oral GAVAGE, vehicle 100 % WATER; for BASOPHIL / EOSINOPHIL / ERYTHROCYTE COUNT / HEMATOCRIT / HEMOGLOBIN / LEUKOCYTE COUNT / LYMPHOCYTE / MEAN CORPUSCULAR HEMOGLOBIN / MEAN CORPUSCULAR HEMOGLOBIN CONCENTRATION / MEAN CORPUSCULAR VOLUME / MONOCYTE / NEUTROPHIL / PLATELET COUNT: tissue Blood; for ALANINE AMINOTRANSFERASE / ALBUMIN / ALKALINE PHOSPHATASE / ASPARTATE AMINOTRANSFERASE / BLOOD UREA NITROGEN / CHLORIDE / CHOLESTEROL / CREATINE PHOSPHOKINASE / CREATININE / GLUCOSE / PHOSPHORUS / POTASSIUM / SODIUM / TOTAL BILIRUBIN / TOTAL PROTEIN: tissue Plasma
[1] = 0 mg/kg, 72 h, dose level Control, time 3 day
[2] = 0 mg/kg, 120 h, dose level Control, time 5 day
[3] = 53.5 mg/kg, 72 h, dose level Low, time 3 day
[4] = 53.5 mg/kg, 120 h, dose level Low, time 5 day
[5] = 535 mg/kg, 72 h, dose level High, time 3 day
[6] = 535 mg/kg, 120 h, dose level High, time 5 day

SMILES: CN1C(=O)OC(C)(C)C1=O [TRIMETHADIONE]
- BASOPHIL [1]: 0%
- EOSINOPHIL [1]: 0.5%
- ERYTHROCYTE COUNT [1]: 5.8 x10E6/uL
- HEMATOCRIT [1]: 35.07%
- HEMOGLOBIN [1]: 14.12 G/DL
- LEUKOCYTE COUNT [1]: 13.7 x10E3/uL
- LYMPHOCYTE [1]: 82.33%
- MEAN CORPUSCULAR HEMOGLOBIN [1]: 24.38 pg
- MEAN CORPUSCULAR HEMOGLOBIN CONCENTRATION [1]: 40.28 G/DL
- MEAN CORPUSCULAR VOLUME [1]: 60.52 fL
- MONOCYTE [1]: 2.67%
- NEUTROPHIL [1]: 14.5%
- PLATELET COUNT [1]: 911.5 x10E3/uL
- ALANINE AMINOTRANSFERASE [1]: 36.83 u/L
- ALBUMIN [1]: 3.75 G/DL
- ALKALINE PHOSPHATASE [1]: 399.83 u/L
- ASPARTATE AMINOTRANSFERASE [1]: 66 u/L
- BLOOD UREA NITROGEN [1]: 14.67 mg/dL
- CHLORIDE [1]: 101.67 MEQ/L
- CHOLESTEROL [1]: 66.33 mg/dL
- CREATINE PHOSPHOKINASE [1]: 139.5 u/L
- CREATININE [1]: 0.92 mg/dL
- GLUCOSE [1]: 175 mg/dL
- PHOSPHORUS [1]: 11.42 mg/dL
- POTASSIUM [1]: 7.03 MEQ/L
- SODIUM [1]: 148.5 MEQ/L
- TOTAL BILIRUBIN [1]: 1.13 mg/dL
- TOTAL PROTEIN [1]: 6.87 G/DL
- BASOPHIL [2]: 0%
- EOSINOPHIL [2]: 0.2%
- ERYTHROCYTE COUNT [2]: 6.02 x10E6/uL
- HEMATOCRIT [2]: 36.48%
- HEMOGLOBIN [2]: 14.38 G/DL
- LEUKOCYTE COUNT [2]: 12.34 x10E3/uL
- LYMPHOCYTE [2]: 83%
- MEAN CORPUSCULAR HEMOGLOBIN [2]: 23.92 pg
- MEAN CORPUSCULAR HEMOGLOBIN CONCENTRATION [2]: 39.44 G/DL
- MEAN CORPUSCULAR VOLUME [2]: 60.66 fL
- MONOCYTE [2]: 3%
- NEUTROPHIL [2]: 13.8%
- PLATELET COUNT [2]: 1190.6 x10E3/uL
- ALANINE AMINOTRANSFERASE [2]: 43 u/L
- ALBUMIN [2]: 3.73 G/DL
- ALKALINE PHOSPHATASE [2]: 393 u/L
- ASPARTATE AMINOTRANSFERASE [2]: 62.33 u/L
- BLOOD UREA NITROGEN [2]: 16.33 mg/dL
- CHLORIDE [2]: 101.67 MEQ/L
- CHOLESTEROL [2]: 65.5 mg/dL
- CREATINE PHOSPHOKINASE [2]: 130.67 u/L
- CREATININE [2]: 0.58 mg/dL
- GLUCOSE [2]: 180.67 mg/dL
- PHOSPHORUS [2]: 11.28 mg/dL
- POTASSIUM [2]: 7.05 MEQ/L
- SODIUM [2]: 148.17 MEQ/L
- TOTAL BILIRUBIN [2]: 0.72 mg/dL
- TOTAL PROTEIN [2]: 6.83 G/DL
- BASOPHIL [3]: 0%
- EOSINOPHIL [3]: 0.5%
- ERYTHROCYTE COUNT [3]: 6.33 x10E6/uL
- HEMATOCRIT [3]: 38.05%
- HEMOGLOBIN [3]: 15.05 G/DL
- LEUKOCYTE COUNT [3]: 12.85 x10E3/uL
- LYMPHOCYTE [3]: 83.5%
- MEAN CORPUSCULAR HEMOGLOBIN [3]: 23.8 pg
- MEAN CORPUSCULAR HEMOGLOBIN CONCENTRATION [3]: 39.55 G/DL
- MEAN CORPUSCULAR VOLUME [3]: 60.15 fL
- MONOCYTE [3]: 3.5%
- NEUTROPHIL [3]: 12.5%
- PLATELET COUNT [3]: 1304.5 x10E3/uL
- ALANINE AMINOTRANSFERASE [3]: 36.5 u/L
- ALBUMIN [3]: 3.7 G/DL
- ALKALINE PHOSPHATASE [3]: 313 u/L
- ASPARTATE AMINOTRANSFERASE [3]: 61.5 u/L
- BLOOD UREA NITROGEN [3]: 12 mg/dL
- CHLORIDE [3]: 101 MEQ/L
- CHOLESTEROL [3]: 59 mg/dL
- CREATINE PHOSPHOKINASE [3]: 136 u/L
- CREATININE [3]: 0.55 mg/dL
- GLUCOSE [3]: 210.5 mg/dL
- PHOSPHORUS [3]: 13 mg/dL
- POTASSIUM [3]: 6.85 MEQ/L
- SODIUM [3]: 151 MEQ/L
- TOTAL BILIRUBIN [3]: 0.35 mg/dL
- TOTAL PROTEIN [3]: 6.65 G/DL
- BASOPHIL [4]: 0%
- EOSINOPHIL [4]: 0%
- ERYTHROCYTE COUNT [4]: 6.06 x10E6/uL
- HEMATOCRIT [4]: 36.17%
- HEMOGLOBIN [4]: 14.4 G/DL
- LEUKOCYTE COUNT [4]: 18.23 x10E3/uL
- LYMPHOCYTE [4]: 83.33%
- MEAN CORPUSCULAR HEMOGLOBIN [4]: 23.8 pg
- MEAN CORPUSCULAR HEMOGLOBIN CONCENTRATION [4]: 39.83 G/DL
- MEAN CORPUSCULAR VOLUME [4]: 59.7 fL
- MONOCYTE [4]: 2.33%
- NEUTROPHIL [4]: 14.33%
- PLATELET COUNT [4]: 1288 x10E3/uL
- ALANINE AMINOTRANSFERASE [4]: 36.67 u/L
- ALBUMIN [4]: 3.57 G/DL
- ALKALINE PHOSPHATASE [4]: 314 u/L
- ASPARTATE AMINOTRANSFERASE [4]: 59 u/L
- BLOOD UREA NITROGEN [4]: 12 mg/dL
- CHLORIDE [4]: 102.33 MEQ/L
- CHOLESTEROL [4]: 70.67 mg/dL
- CREATINE PHOSPHOKINASE [4]: 109.33 u/L
- CREATININE [4]: 0.6 mg/dL
- GLUCOSE [4]: 190.67 mg/dL
- PHOSPHORUS [4]: 13.13 mg/dL
- POTASSIUM [4]: 6.6 MEQ/L
- SODIUM [4]: 151.33 MEQ/L
- TOTAL BILIRUBIN [4]: 0.3 mg/dL
- TOTAL PROTEIN [4]: 6.5 G/DL
- BASOPHIL [5]: 0%
- EOSINOPHIL [5]: 0%
- ERYTHROCYTE COUNT [5]: 6.23 x10E6/uL
- HEMATOCRIT [5]: 37.4%
- HEMOGLOBIN [5]: 14.63 G/DL
- LEUKOCYTE COUNT [5]: 13.2 x10E3/uL
- LYMPHOCYTE [5]: 82.67%
- MEAN CORPUSCULAR HEMOGLOBIN [5]: 23.5 pg
- MEAN CORPUSCULAR HEMOGLOBIN CONCENTRATION [5]: 39.13 G/DL
- MEAN CORPUSCULAR VOLUME [5]: 60 fL
- MONOCYTE [5]: 5.67%
- NEUTROPHIL [5]: 11.67%
- PLATELET COUNT [5]: 1178.33 x10E3/uL
- ALANINE AMINOTRANSFERASE [5]: 42.67 u/L
- ALBUMIN [5]: 3.63 G/DL
- ALKALINE PHOSPHATASE [5]: 285 u/L
- ASPARTATE AMINOTRANSFERASE [5]: 71 u/L
- BLOOD UREA NITROGEN [5]: 12.67 mg/dL
- CHLORIDE [5]: 98.33 MEQ/L
- CHOLESTEROL [5]: 72 mg/dL
- CREATINE PHOSPHOKINASE [5]: 136.33 u/L
- CREATININE [5]: 0.57 mg/dL
- GLUCOSE [5]: 181.33 mg/dL
- PHOSPHORUS [5]: 12.93 mg/dL
- POTASSIUM [5]: 6.83 MEQ/L
- SODIUM [5]: 152 MEQ/L
- TOTAL BILIRUBIN [5]: 0.27 mg/dL
- BASOPHIL [6]: 0%
- EOSINOPHIL [6]: 0.33%
- ERYTHROCYTE COUNT [6]: 5.77 x10E6/uL
- HEMATOCRIT [6]: 33.97%
- HEMOGLOBIN [6]: 13.13 G/DL
- LEUKOCYTE COUNT [6]: 10.67 x10E3/uL
- LYMPHOCYTE [6]: 78.67%
- MEAN CORPUSCULAR HEMOGLOBIN [6]: 22.8 pg
- MEAN CORPUSCULAR HEMOGLOBIN CONCENTRATION [6]: 38.67 G/DL
- MEAN CORPUSCULAR VOLUME [6]: 58.97 fL
- MONOCYTE [6]: 2.67%
- NEUTROPHIL [6]: 18.33%
- PLATELET COUNT [6]: 1123.33 x10E3/uL
- ALANINE AMINOTRANSFERASE [6]: 42 u/L
- ALBUMIN [6]: 3.67 G/DL
- ALKALINE PHOSPHATASE [6]: 272.33 u/L
- ASPARTATE AMINOTRANSFERASE [6]: 78.33 u/L
- BLOOD UREA NITROGEN [6]: 14.67 mg/dL
- CHLORIDE [6]: 99.33 MEQ/L
- CHOLESTEROL [6]: 74.33 mg/dL
- CREATINE PHOSPHOKINASE [6]: 143.67 u/L
- CREATININE [6]: 0.57 mg/dL
- GLUCOSE [6]: 180.33 mg/dL
- PHOSPHORUS [6]: 13.1 mg/dL
- POTASSIUM [6]: 6.6 MEQ/L
- SODIUM [6]: 153.33 MEQ/L
- TOTAL BILIRUBIN [6]: 0.27 mg/dL
- TOTAL PROTEIN [6]: 6.53 G/DL

— ChEMBL document CHEMBL3885881, “DrugMatrix”
